Test results reported in US7273723B2, “Antibiotic-based gene regulation system” (priority 2001, dated 2007).

How the values were obtained:
[1] = tested on: ET1 (MphR(A)-VP16) / PETR promoters; experiment: SEAP reporter assay, CHO lines stably expressing ET1 (CHO-ET11, CHO-ET12) transiently transfected with PETR-SEAP plasmids; format: cell-based; settings: for SEAP production [%]: CHO-ET11 transiently transfected with pWW38, 48 h, antibiotic 2 μg/ml, no macrolide = 100
Method: (§1) Chinese hamster ovary cells (CHO-K1, ATCC: CCL 61), and HeLa cells (ATCC: CRL-7923) as well as stable cell lines derived thereof were cultured as described before (Fussenegger et al., 1998, Nat. Biotechnol. 16,468-472) in the presence of appropriate antibiotics: G418 400 μg/ml; zeocin 100 μg/ml. Optimized CaPO4 protocols were used for high efficiency transient transfection of all cell lines (Fussenegger et al., 1998. Nat. Biotechnol. 16: 468-472). Transiently transfected cells were routinely analyzed after 48 h for CFP or SEAP expression using fluorescence microscopy and p-nitrophenolphosphate-based light absorbance timecourse, respectively, as described before (Fussenegger et al., 1998, Nat. Biotechnol. 16, 468-472; Berger et al., 1988, Gene 66, 1-10 b). For construction of stable CHO-ET1 and CHO-Triplet42 cell lines, CHO-Ki and CHO-TWIN1108 (Disclosed in PCT application no. 00/65080) were cotransfected with pWW35 and pZeoSV2 (invitrogen). CHO-ET11-SEAP was constructed by cotransfection of pWW38 and pSV2neo (Clontech) into CHO-ET11. The mixed populations were cloned using FACS-mediated single-cell-sorting (FACStar^Plus; Beckton Dickinson). For assessment of dose-response characteristics of PETR3-regulated gene expression, CHO-ET11-SEAP were cultured at cell densities of 50,000/ml for 48 h at various EM concentrations.
(§2) Other antibiotics were eluted from antibiotic test discs (Mast Diagnostica GmbH, Reinfeld, Germany, or bioMérieux, Geneva Switzerland) in cell culture medium at 37° C. for 12 h to reach a final concentration of 30 μg/ml. All macrolide antibiotics were used at a 2 μg/ml concentration unless indicated otherwise.
Two representative clones, CHO-ET11 and CHO-ET12, were chosen at random among ET1-expressing CHO cell clones stably transfected with a constitutive ET1 expression construct (pWW35).
Access to alternative effective antibiotics would expand the spectrum of regulating agents available for future use in human cell and gene therapy. Accordingly, several commercially available antibiotic sources were tested for their potential to regulate the ET1/PETR3 system as shown below in Table 3.
The effect of the different spacer length in promoters PETR2 and PETR7-PETR11 were examined by transfecting the corresponding plasmids (pWW37, pBP10-pBP14) into a CHO cell line stably transfected with the transactivator ET1 (MphR(A)-VP 16, see example 1).

[2] = saliva, sputum, lung tissue, epithelial lining fluid, alveolar macrophages, neutrophils, tonsils, nasal mucosa, middle ear fluid; cited from earlier work
[3] = tested on: PIT / pristinamycin-responsive promoter PPIR; experiment: SEAP assay in CHO-Triplet42 transfected with PPIR-SEAP (pMF172); format: cell-based; settings: for SEAP activity [U/L]: CHO-Triplet42 + pMF172 (PPIR), antibiotic 2 μg/ml, 48 h
Method: as §1, §2
(§3) The regulation performance of the EM-based regulation system was compared directly with the widely used TET- and PIP responsive expression concepts. To this end, we have constructed a stable CHO-K1-derived cell line expressing ET1, PIT and tTA (CHO-Triplet42). […] CHO-Triplet42 was transfected with either isogenic (i) PETR3-(pWW38), (ii) a PPIR-(pristinamycin-responsive promoter, pMF172, Fussenegger et al., 2000. supra.), or (iii) a PhCMV*-1-(tetracycline-responsive promoter, pMF111, Fussenegger et al., 2000. supra) driven SEAP expression vector to assess the individual regulation performance of the three antibiotic-responsive gene regulation systems in CHO cells (Table 5).
(§4) To analyze the relative regulatory characteristics, we evaluated induction factors (IF; ratio of maximal expression level to antibiotic-repressed expression level).
(§5) These repressive effects are still in a range which is tolerable for use in potential medical applications.

[4] = tested on: ET1 / erythromycin-responsive promoter PETR3; experiment: SEAP assay in CHO-Triplet42 transfected with PETR3-SEAP (pWW38); format: cell-based; settings: antibiotic 2 μg/ml; for SEAP activity [U/L]: CHO-Triplet42 + PWW38 (PETR3), 48 h
Method: as §1, §2, §3, §4, §5

[5] = target: T1, tTA / tetracycline-responsive promoter PhCMV*-1 (Escherichia coli, UniProt P04483); experiment: SEAP assay in CHO-Triplet42 transfected with PhCMV*-1-SEAP (pMF111); format: cell-based; settings: antibiotic 2 μg/ml
T1 construct: expressed in transfected cells; host or cells: CHO-Triplet42 (from CHO-TWIN1108)
Method: as §1, §2

## CC[C@H]1OC(=O)[C@H](C)[C@@H](O[C@H]2C[C@@](C)(OC)[C@@H](O)[C@H](C)O2)[C@H](C)[C@@H](O[C@@H]2O[C@H](C)C[C@H](N(C)C)[C@H]2O)[C@](C)(O)C[C@@H](C)CN(C)[C@H](C)[C@@H](O)[C@]1(C)O [Azithromycin]
[1]
  SEAP production [%]: 57.6 ± 4.4%

## CC[C@H]1OC(=O)[C@H](C)[C@@H](O[C@H]2C[C@@](C)(OC)[C@@H](O)[C@H](C)O2)[C@H](C)[C@@H](O[C@@H]2O[C@H](C)C[C@H](N(C)C)[C@H]2O)[C@](C)(OC)C[C@@H](C)C(=O)[C@H](C)[C@@H](O)[C@]1(C)O [Clarithromycin]
[1]; CHO-ET11 + pWW38, 2 μg/ml
  Induction factor (ratio of SEAP activity without antibiotic to SEAP activity with antibiotic): 23
[1]
  SEAP production [%]: 4.3 ± 0.3%
[2]
  diffusion into tissues and fluids: extensive diffusion

## CN(C)[C@@H]1C(O)=C(C(N)=O)C(=O)[C@@]2(O)C(O)=C3C(=O)c4c(O)cccc4[C@@](C)(O)[C@H]3C[C@@H]12 [Tet, tetracycline]
[3]
  SEAP activity [U/L]: 4.6 ± 0.4 U/L
[4]
  SEAP activity [U/L]: 55.0 ± 8.3 U/L

## CC[C@H]1OC(=O)C[C@@H](O)[C@H](C)[C@@H](O[C@@H]2O[C@H](C)[C@@H](O[C@H]3C[C@@](C)(O)[C@@H](O)[C@H](C)O3)[C@H](N(C)C)[C@H]2O)[C@@H](CC=O)C[C@@H](C)C(=O)/C=C/C(C)=C/[C@@H]1CO[C@@H]1O[C@H](C)[C@@H](O)[C@@H](OC)[C@H]1OC [Tylosin]
[1]
  SEAP production [%]: 30.9 ± 3.2%

## CO/N=C(\C(=O)N[C@@H]1C(=O)N2C(C(=O)O)=C(CSc3nc(=O)c(=O)[nH]n3C)CS[C@H]12)c1csc(N)n1 [Ceftriaxone]
[1]
  SEAP production [%]: 28.8 ± 1.8%

## CC[C@H]1OC(=O)[C@H](C)[C@@H](O[C@H]2C[C@@](C)(OC)[C@@H](O)[C@H](C)O2)[C@H](C)[C@@H](O[C@@H]2O[C@H](C)C[C@H](N(C)C)[C@H]2O)[C@](C)(O)C[C@@H](C)/C(=N\OCOCCOC)[C@H](C)[C@@H](O)[C@]1(C)O [Roxithromycin]
[1]
  SEAP production [%]: 18.1 ± 0.9%

## pristinamycin I [PI]
[3]
  SEAP activity [U/L]: 2.2 ± 0.1 U/L
[3]; Pip-system in CHO-Triplet42
  Induction factor: three-fold
[5]; CHO-Triplet42 + pMF111 (PhCMV*-1), 48 h
  SEAP activity [U/L]: 87.9 ± 7.0 U/L
[5]; CHO-Triplet42 + pMF111
  Antibiotic crossregulation of PhCMV*-1: no significant interference
[4]
  SEAP activity [U/L]: 71.9 ± 7.0 U/L
[4]; CHO-Triplet42 + pWW38
  Antibiotic crossregulation of PETR3: no significant interference
